In ChEMBL document CHEMBL4257539, “Identification of potent catalytic inhibitors of human DNA topoisomerase II by structure-based virtual screening” (Medchemcomm, 2018):
Active and inactive are the calls of the source. The calls are words filed in the database; no cut-off is given here.

Tests used:
HCT-116 [1] = system: HCT-116
Description: (§1) Antiproliferative activity against human HCT116 cells after 72 hrs by MTT assay

[2] = Inhibition of human topoisomerase-2 assessed as reduction in relaxation of supercoiled pBR322 DNA after 30 mins by ethidium bromide staining based agarose gel electrophoresis method
Homo sapiens [3] = species on record: Homo sapiens; test: Inhibition of human topoisomerase-2 assessed as reduction in relaxation of supercoiled pBR322 DNA at 100 uM after 30 mins by ethidium bromide staining based agarose gel electrophoresis method
A549 [4] = system: A549
Description: (§2) Antiproliferative activity against human A549 cells after 72 hrs by MTT assay

ZR-75-30 = test: Antiproliferative activity against human ZR-7530 cells after 72 hrs by MTT assay; format: functional, cell-based
Homo sapiens [5] = species on record: Homo sapiens; test: Inhibition of human topoisomerase-2 assessed as reduction in relaxation of supercoiled pBR322 DNA at 50 uM after 30 mins by ethidium bromide staining based agarose gel electrophoresis method
HCT-116 [6] = test: cells; conditions: Homo sapiens, HCT-116, 72 h
Description: as §1

A549 [7] = test: cells; conditions: Homo sapiens, A549, 72 h
Description: as §2

[8] = Homo sapiens, ZR-75-30, 72 h, read-out: IC50

Structure (SMILES) | IC50 (HCT-116 [1]) | IC50 [2] [µM] | inhibition (Homo sapiens [3]) | IC50 (A549 [4]) | IC50 (ZR-75-30; zr-75-30) | inhibition (Homo sapiens [5]) | IC50 (HCT-116 [6]) [µM] | IC50 (A549 [7]) [µM] | IC50 (ZR-75-30; [8]) [µM]
Cc1cc(C(=O)O)ccc1-c1ccc(/C=c2/sc3nc4ccccc4n3c2=O)o1 | Not Active | 41 | Active | Not Active | Not Active |  |  |  | 
COc1cc([C@@H]2c3cc4c(cc3[C@@H](O[C@@H]3O[C@@H]5CO[C@@H](C)O[C@H]5[C@H](O)[C@H]3O)[C@H]3COC(=O)[C@H]23)OCO4)cc(OC)c1O [ETOPOSIDE] |  | 184 | Active |  |  | inactive | 1.1 | 68 | 1.5
C=CCn1c(CN2c3ccccc3Sc3ccccc32)nnc1SCC(=O)O |  |  |  | Not Active |  |  | 32 |  | 15
COc1ccc(-c2cc(-c3ccccc3)c(C#N)c(SCC(=O)O)n2)cc1 |  |  | Active |  |  |  | 10 | 37 | 14
N#Cc1c(-c2ccc(F)cc2)cc(-c2ccccc2)nc1SCC(=O)NCC(=O)O | Not Active |  | Active | Not Active | Not Active |  |  |  | 
CC(C)(O)C#Cc1cc(C(=O)NCCc2ccc(S(N)(=O)=O)cc2)c2oc(C(C)(C)O)cc2c1 | Not Active | 349 | Active | Not Active |  |  |  |  | 62
O=C(O)CCSc1nnc(-c2cccnc2)n1CCc1ccccc1 | Not Active |  |  | Not Active | Not Active |  |  |  | 
COc1ccc(C(=O)Cn2c(=N)n(Cc3ccc(C)cc3)c3ccccc32)cc1 |  |  | Active |  |  |  | 1 | 1.2 | 1.2
O=C(O)c1ccc2c(c1)C(=O)N(c1ccc(C(=O)OCC(=O)c3ccccc3)cc1)C2=O | Not Active |  | Active | Not Active | Not Active |  |  |  | 
NS(=O)(=O)c1ccc(NC(=O)CSc2nnc3ccc4ccccc4n23)cc1 | Not Active |  |  | Not Active | Not Active |  |  |  | 
O=C(O)COc1ccc(/C=N/n2c(COc3ccccc3)nc3ccccc3c2=O)cc1 |  |  | Active | Not Active |  |  | 54 |  | 58
O=C(O)CCc1nn2c3ccccc3n(Cc3ccccc3)c2nc1=O | Not Active |  | Active | Not Active | Not Active |  |  |  | 
